Reference: patent publication US4839353A, “Anti-ulcer substituted pyridine derivatives” (Banyu Pharmaceutical Co., Ltd., priority 1986, dated 1989)
Where a name gives a salt, the structure may show the parent alone.

Key:
[1] = tested on: gastric ulcer induced by ethanol-hydrochloric acid; experiment: Effect of preventing gastric ulcer induced by ethanol-hydrochloric acid; format: in vivo; details: SD-strain male rats, oral, 30 min before 0.2N hydrochloric acid-50% ethanol (1 ml/rat); length of bleeding erosions; read-out: 50% Effective dose (ED50, mg/kg)
Procedure: (3) Effect of preventing gastric ulcer induced by ethanol-hydrochloric acid According to the method of Robert et al. (see "Gastroenterology" 77, 433-443 (1979), SD-strain rats (male, weighing 200 to 220 g, 8 rats in each group) were deprived of food for 24 hours and of water for 19 hours. Each of the test compounds was suspended in 0.5% carboxymethyl cellulose, and orally administered to the rats. Thirty minutes after administration, 0.2N hydrochloric acid-50% ethanol (1 ml/rat) was orally administered. One hour after the administration of ethanol-hydrochloric acid, the rats were killed. The stomachs were dissected out, and the lower part of the esophagus was nipped with a clip. Aqueous 1% formalin solution (12.0 ml) was poured into the stomachs from the duodenum and then the duodenum part was nipped with a clip. The whole stomachs were immersed in aqueous 1% formalin for about 10 minutes for fixation. The stomachs were opened along the greater curvature and then rinsed with water. The gastric mucosa was examined and the lengths of bleeding erosions which occurred in the glandular stomach were measured in mm under an anatomic microscope. From the test results obtained by the above method, the ED50 (50% effective dose) of each of the test compounds was calculated.

H^+,K^+ -ATPase = target: T1, H^+,K^+ -ATPase (Oryctolagus cuniculus, UniProt P27112); experiment: Inhibitory effects on the activity of H^+,K^+ -ATPase; format: biochemical; details: H^+,K^+ -ATPase-containing light membrane fractions from rabbit gastric glands; read-out: 50% Enzyme inhibitory concentration (IC50)
T1 construct: Rabbit gastric glands were homogenized and microsomal fractions were prepared; from tissue; host or cells: rabbit gastric glands, light microsomal membrane fraction
Procedure: (1) Inhibitory effects on the activity of H^+,K^+ -ATPase Rabbit gastric glands were homogenized and microsomal fractions were prepared by differential centrifugation of the resultant homogenate. The microsomal fractions were layered on 37% sucrose and centrifuged to obtain light membrane fractions containing H^+,K^+ -ATPase. Using the H^+,K^+ -ATPase-containing fractions, the effects of the compounds of this invention and omeprazole on the activity of H^+,K^+ -ATPase were examined. The inhibitory activities of the compounds of this invention on H^+,K^+ -ATPase measured by the above method are shown in Table I.

gastric acid secretion = experiment: Gastric acid antisecretory activity (histamine-enhanced gastric acid secretion in anesthetized rats); format: in vivo; details: Rattus norvegicus, iv, 1.25 h; male Doryu rats, urethane anesthesia, histamine infusion 2 mg/kg/hr, test compound via jugular vein 75 min after start of infusion; read-out: Gastric acid antisecretory activity 50% Effective dose (ED50, mg/kg)
Procedure: (2) Gastric acid antisecretory activity The method of preparation was based on the technique of Osumi et al. (see "Life Science" 20, 1407, 1977). Male Doryu rats weighing about 250 g were deprived of food for 24 hours but were allowed free access to water before experiments. […] The esophagus was ligated, and bilateral vagus nerves were carefully separated and cut at the cervical portion. The abdomen was opened by a midoline incinion, and a polyethylene cannula (about 3.5 cm in length and 0.4 cm in diameter) was inserted into the stomach via an incision in the duodenum. After washout of the stomach with saline, 2.0 ml of fresh saline prewarmed at 38° C. was instilled and replaced with fresh solution at 15 min intervals. Several successive collections of basal acid secretion were made to confirm the steady level of secretion. After these collections, gastric acid secretion was enhanced by infusion of histamine. Gastric acid secretion was determined as follows: the total value of gastric solution recovered from the stomach every 15 min was titrated to pH 7.0 with 0.1N NaOH, using an automatic titrator (Radiometer, Copenhage, Denmark). Acid output secreted for 15 min were calculated as microequivalents per 15 min. […] From the acid output in a control group measured at the time when the acid output secreted was lowest, the acid secretion inhibitory ratio (R) was calculated in accordance with the following equation. [formula] wherein V° is the acid output produced when the animals were not treated with the test compounds (control), and V is the acid output acid produced when the test compounds were administered to the animals. Furthermore, from correlation line between the dose and the inhibitory ratio at the dose by using the method of least squares, the 50% inhibitory dose was determined.

T1 sequence (P27112 2-1035 limits assumed): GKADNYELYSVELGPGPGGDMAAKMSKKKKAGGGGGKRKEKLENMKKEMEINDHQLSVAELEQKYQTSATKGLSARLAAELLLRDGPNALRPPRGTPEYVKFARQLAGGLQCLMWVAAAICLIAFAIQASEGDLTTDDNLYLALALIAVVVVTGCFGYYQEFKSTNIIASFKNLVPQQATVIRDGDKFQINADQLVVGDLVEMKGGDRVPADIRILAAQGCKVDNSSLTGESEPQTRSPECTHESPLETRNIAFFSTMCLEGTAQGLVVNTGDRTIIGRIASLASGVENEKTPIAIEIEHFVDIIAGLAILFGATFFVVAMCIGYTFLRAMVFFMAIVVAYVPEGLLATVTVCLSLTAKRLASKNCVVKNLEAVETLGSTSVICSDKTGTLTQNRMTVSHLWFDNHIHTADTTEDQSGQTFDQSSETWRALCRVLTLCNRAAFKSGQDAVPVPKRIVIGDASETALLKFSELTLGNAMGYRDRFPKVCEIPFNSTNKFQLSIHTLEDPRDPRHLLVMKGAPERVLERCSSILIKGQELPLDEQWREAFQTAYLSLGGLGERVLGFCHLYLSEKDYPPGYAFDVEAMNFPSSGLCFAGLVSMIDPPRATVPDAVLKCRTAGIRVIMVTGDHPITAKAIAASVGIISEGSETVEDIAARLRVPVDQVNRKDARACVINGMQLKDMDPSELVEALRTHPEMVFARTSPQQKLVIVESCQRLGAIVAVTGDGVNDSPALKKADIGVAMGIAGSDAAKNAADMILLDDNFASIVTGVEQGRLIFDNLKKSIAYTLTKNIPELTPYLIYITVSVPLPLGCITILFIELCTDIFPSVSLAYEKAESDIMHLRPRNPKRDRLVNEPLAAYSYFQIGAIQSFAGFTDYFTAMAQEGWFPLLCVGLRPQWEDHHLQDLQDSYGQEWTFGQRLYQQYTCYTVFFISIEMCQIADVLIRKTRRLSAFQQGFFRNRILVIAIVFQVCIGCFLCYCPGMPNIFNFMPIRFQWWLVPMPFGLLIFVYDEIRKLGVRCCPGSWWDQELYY
T1 sequence (P18597 whole entry partner): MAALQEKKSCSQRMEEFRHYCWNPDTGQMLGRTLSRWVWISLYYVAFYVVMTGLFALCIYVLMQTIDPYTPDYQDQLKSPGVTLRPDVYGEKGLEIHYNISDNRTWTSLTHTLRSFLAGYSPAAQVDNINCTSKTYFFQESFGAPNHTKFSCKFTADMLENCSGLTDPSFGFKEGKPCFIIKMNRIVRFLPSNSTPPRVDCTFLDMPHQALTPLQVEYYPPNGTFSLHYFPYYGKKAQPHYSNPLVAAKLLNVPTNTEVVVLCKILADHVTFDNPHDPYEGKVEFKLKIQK

IC50 (H^+,K^+ -ATPase) | Structure (SMILES) | ED50 [1] | ED50 (gastric acid secretion)
3 µM | Cc1cnc(CCc2ccc3ccccc3c2)cc1N1CCCCC1.Cl [Test compound 28, 5-methyl-2-[2-(2-naphthyl)ethyl]-4-piperidinopyridine hydrochloride] | 3.6 mg/kg | 
16 µM | Cc1cnc(CSc2ccccc2)cc1N1CCCCC1.Cl [Test compound 5, 5-methyl-2-phenylthiomethyl-4-piperidinopyridine hydrochloride] | 9.2 mg/kg | 
7.8 µM | Cc1ccc2cc(/C=C\c3cc(N4CCCCC4)c(C)cn3)ccc2c1 [Test compound 19, (Z)-5-methyl-2-[2-(6-methyl-2-naphthyl)-vinyl]-4-piperidinopyridine] |  | 
6 µM | Cc1cnc(/C=C\c2cccc3c(C)cccc23)cc1N1CCCCC1 [Test compound 10, (Z)-2-[2-(5-methyl-1-naphthyl)vinyl]-5-methyl-4-piperidinopyridine hydrochloride] |  | 
4.3 µM | Cc1cnc(/C=C/c2ccc3ccccc3c2)cc1N1CCCCC1 [Test compound 17, (E)-5-methyl-2-[2-(2-naphthyl)vinyl]-4-piperidinopyridine hydrochloride] |  | 
0.78 µM | Cc1cnc(/C=C\c2cccc3ccccc23)cc1N1CCCCCC1 [compound 13] |  | 0.9 mg/kg
2.3 µM | Cc1ccc2cc(CCc3cc(N4CCCCC4)c(C)cn3)ccc2c1 [Test compound 29, 5-methyl-2-[2-(6-methyl-2-naphthyl)-ethyl]-4-piperidinopyridine hydrochloride] |  | 
3.5 µM | Cc1cnc(/C=C\c2cccc3ccccc23)cc1OC1CCCCC1 [compound 12] |  | 1.35 mg/kg
3.6 µM | Cc1cnc(CCc2cccc3ccccc23)cc1N1CCCCC1 [Test compound 22, 5-methyl-2-[2-(1-naphthyl)ethy]-4-piperidinopyridine hydrochloride] | 5.4 mg/kg | 2.5 mg/kg
4.6 µM | Cc1cnc(/C=C\c2cccc(Cl)c2Cl)cc1N1CCCCC1 [Test compound 20, (Z)-2-[2-(2,3-dichlorophenyl)vinyl]-5-methyl-4-piperidinopyridine hydrochloride] |  | 
2.3 µM | Cc1cnc(/C=C\c2cccc3cccc(C)c23)cc1N1CCCCC1 [Test compound 11, (Z)-2-[2-(8-methyl-1-naphthyl)vinyl]-5-methyl-4-piperidinopyridine] |  | 0.92 mg/kg
9 µM | Cc1cnc(CSc2ccc3ccccc3c2)cc1N1CCCCC1.Cl [Test compound 6, 5-methyl-2-[(2-naphthyl)thiomethyl]-4-piperidinopyridine hydrochloride] | 7.3 mg/kg | 
4.8 µM | Cc1cnc(/C=C\c2ccc(Cl)c3ccccc23)cc1N1CCCCC1.Cl [Test compound 8, (Z)-2-[2-(4-chloro-1-naphthyl)vinyl]-5-methyl-4-piperidinopyridine hydrochloride] |  | 2.78 mg/kg
6.2 µM | COc1ccc2[nH]c([S+]([O-])Cc3ncc(C)c(OC)c3C)nc2c1 (stereo not drawn) [omeprazole, reference compound] | 34.1 mg/kg | 

Continued, compound first:

Structure (SMILES) | IC50 (H^+,K^+ -ATPase) | ED50 [1] | ED50 (gastric acid secretion)
Cc1cnc(CCc2ccccc2)cc1N1CCCCC1.Cl [Test compound 27, 5-methyl-2-phenethyl-4-piperidinopyridine hydrochloride] |  | 5.4 mg/kg | 
Cc1cnc(CCc2cccc3ccccc23)cc1OC1CCCCC1.Cl [Test compound 25, 4-cyclohexyloxy-5-methyl-2-[2-(1-naphthyl)ethyl]pyridine hydrochloride] | 2.6 µM |  | 0.91 mg/kg
Cc1cnc(COc2ccc(C(C)(C)C)cc2)cc1N1CCCCC1 [compound 2] | 3.5 µM |  | 
Cc1cnc(/C=C\c2cccc3ccccc23)cc1N1CCCC(C)C1 (stereo not drawn) [compound 15] | 1.7 µM |  | 0.99 mg/kg
Cc1cnc(CCc2cccc3ccccc23)cc1N1CCC(C)CC1.Cl [Test compound 21, 5-methyl-4-(4-methylpiperidino)-2-[2-(1-naphthyl)ethyl]pyridine hydrochloride] | 2.7 µM |  | 0.78 mg/kg
Cc1cnc(CCc2ccc(C)c3ccccc23)cc1N1CCCCC1 [Test compound 23, 5-methyl-2-[2-(4-methyl-1-naphthyl)-ethyl]-4-piperidinopyridine hydrochloride] | 4.6 µM |  | 
C(=C/c1cnccc1N1CCCCC1)/c1ccc2ccccc2c1 [Test compound 16, (Z)-3-[2-(2-naphthyl)vinyl]-4-piperidinopyridine] | 2.6 µM |  | 
Cc1cnc(CCc2cccc3cccc(C)c23)cc1N1CCCCC1.Cl [Test compound 24, 5-methyl-2-[2-(8-methyl-1-naphthyl)-ethyl]-4-piperidinopyridine hydrochloride] | 6 µM |  | 2.72 mg/kg
Cc1cnc(COc2ccc(C3CCCCC3)cc2)cc1N1CCCCC1 [compound 4] | 3.8 µM |  | 
Cc1cnc(/C=C\c2ccc(F)c3ccccc23)cc1N1CCCCC1 [compound 9] | 5.9 µM |  | 
CCC(C)c1ccc(OCc2cc(N3CCCCC3)c(C)cn2)cc1 (stereo not drawn) [compound 3] | 4.1 µM |  | 
Cc1cnc(/C=C\c2cccc3ccccc23)cc1N1CCC(C)CC1.Cl [Test compound 14, (Z)-5-methyl-4-(4-methylpiperidino)-2-[2-(1-naphthyl)vinyl]pyridine hydrochloride] | 2.8 µM |  | 1.09 mg/kg
Cc1cnc(CCc2cccc3ccccc23)cc1N1CCCC(C)C1.Cl (stereo not drawn) [Test compound 26, 5-methyl-4-(3-methylpiperidino)-2-[2-(1-naphthyl)ethyl]pyridine hydrochloride] | 1.7 µM |  | 0.91 mg/kg
Cc1cnc(/C=C\c2ccc3ccccc3c2)cc1N1CCCCC1 [Test compound 18, (Z)-5-methyl-2-[2-(2-naphthyl)vinyl]-4-piperidinopyridine hydrochloride] | 8.4 µM |  | 
Cc1cnc(/C=C\c2cccc3ccccc23)cc1N1CCCCC1 [compound 7] | 2.2 µM |  | 1.16 mg/kg
Cc1cnc(COc2ccccc2)cc1N1CCCCC1.Cl [Test compound 1, 5-methyl-2-phenoxymethyl-4-piperidinopyridine hydrochloride] | 8.4 µM | 12.1 mg/kg | 
